Patent publication US20260132128A1, “COMPOUND FOR RECOVERING P53 MUTATION FUNCTION AND USE THEREOF” (SHENZHEN ZHONGGE BIOLOGICAL TECHNOLOGY CO., LTD., priority 2022, published 2026)
Marks after values point to notes of the source that are not given here.

Tests used:
p53 Y220C [1] = target: T1, p53 Y220C (Homo sapiens, UniProt P04637, P309S/R273H/Y220C); experiment: DNA binding test (HTRF): binding of P53Y220C protein to DNA; type: biochemical; conditions: HTRF, activation of p53 Y220C (aa 94-312) binding to biotin DNA
T1 construct: a truncated mutant containing only amino acids 94-312 of p53; made in house; host or cells: E. coli
Description: (§1) In order to detect the ability of the aforementioned compounds to increase the binding of P53Y220C protein to DNA, the binding activity of p53 Y220C was measured by homogeneous time-resolved fluorescence (HTRF). Recombinant His-tagged p53 Y220C for HTRF measurement was expressed in bacteria E. coli. The recombinant protein was a truncated mutant containing only amino acids 94-312 of p53, and its sequence was […] […] VEGNLR […] TFRh[…] […]. The sense strand of the DNA double strand was 5′-[…]-3′, with a biotin tag at the 5′ end for activity assay, and the antisense strand was 5′-[…]-3′ 40 mL of assay buffer (20 mM Tris HCL, pH 7.5, 50 mM NaCl, 2 mM MgCl2, 0.02% Tween 20, 0.01% BSA, 1 mM DTT) was prepared. 10 mM compound was prepared and subjected to 3-fold dilution to obtain 10 dose gradient dilutions of the compound. 20 nL of the compound was added to a 384-well assay plate (PerkinElmer 6007299) using an Echo 655 Liquid Handler. P53Y220C protein was dissolved in assay buffer to reach a final concentration of 150 nM, and 5 μL thereof was added to each well, and incubated at room temperature for 5 min. DNA was dissolved in assay buffer to reach a final concentration of 150 nM, and 5 μL thereof was added to each well, and incubated at room temperature for 15 min. Anti 6HIS-XL665 (Cisbio 61HISXLB) was dissolved in assay buffer to reach a final concentration of 20 nM, and 5 μL thereof was added to each well. Streptavidin-Eu cryptate (Cisbio 610SAKLA) was dissolved in assay buffer to reach a final concentration of 0.625 nM, and 5 μL thereof was added to each well, and incubated at 27° C. for 1 hour. The plate was then read for signal values on an Envision (PerkinElmer 2105-0020) plate reader at 665 nm and 615 nm, respectively. […] Activation rate={(A-C)/(C)}*100%, A=(signal value at 665 nm/signal value at 615 nm); C=average signal of negative control (wherein, negative control referred to 0.1% DMSO).

p53 Y220C [2] = target: T2, p53 Y220C (Homo sapiens, UniProt P04637, Y220C); experiment: as above; type: biochemical; conditions: multiple ratio of EC50 of the compound to the reference compound, DNA binding test
T2 construct: a truncated mutant containing only amino acids 94-312 of p53; made in house; host or cells: E. coli
Description: as §1

NUGC-3 cells = experiment: NUGC-3 cell proliferation assay (CTG); type: cell-based, human; conditions: for GI50: Homo sapiens, NUGC-3, 144 h, 6 days, CTG; for Compound GI50 (nM)/Reference compound GI50 (nM): multiple ratio of GI50 of the compound to the reference compound
Description: In order to detect the inhibitory effect of the aforementioned compounds on the proliferation ability of NUGC-3 cells, 250 NUGC-3 cells (Nanjing Cobioer Biosciences Co., Ltd., CBP60492) were seeded into a 384-well plate (Corning 3765), 35 μL per well, and incubated overnight in a constant temperature incubator at 37° C. and 5% CO2. Then, 40 nL of the compound was added to the 384-well plate using an Echo 655 Liquid Handler, with a maximum final concentration of 10 μM, 1:3 serial dilutions, and a total of 10 doses. The culture was performed at 37° C. and 5% CO2 for 6 days. The plate was taken out from the incubator and equilibrated at room temperature for 10 minutes. 20 μL of CTG (Promage G7572) was added to each well of the plate according to the platemap. The plate was centrifuged at 1000 rpm for 1 min. The lysis of cells was induced by mixing on a shaker for 2 min. The plate was centrifuged at 1000 rpm for 1 min. Incubation was performed at room temperature for 10 min to stabilize luminescence signals. Luminescence values were recorded by Envision (PerkinElmer 2105-0020). GraphPad 9.0 was used to fit the inhibition rate and compound concentration into a nonlinear regression curve (dose response-variable slope) to calculate GI50, inhibition rate={1−(A−B)/(C−B)}*100%, A=signal value of compound; B=average signal of blank control; C=average signal of negative control (wherein negative control was 0.1% DMSO).

COc1cc(-c2nccs2)ccc1NCC#Cc1nc2c(NC3CCN(C)CC3)cccn2c1CC(F)(F)F [Compound 16]
EC50 (p53 Y220C [1]): 100 to 500 nM | Compound EC50 (nM)/Reference compound EC50 (nM) (p53 Y220C [2]): C (C: EC50 of the compound≥3*EC50 of the reference compound) | GI50 (NUGC-3 cells): ≥ 5 µM | Compound GI50 (nM)/Reference compound GI50 (nM) (NUGC-3 cells): C (C: GI50 of the compound ≥ 3 * GI50 of the reference compound)

CN1CCC(Nc2cccn3c(CC(F)(F)F)c(-c4noc(CNC(=O)c5ccn(C(C)(C)C)c5)n4)nc23)CC1 [Compound 17]
EC50 (p53 Y220C [1]): 500 to 1000 nM | Compound EC50 (nM)/Reference compound EC50 (nM) (p53 Y220C [2]): C (C: EC50 of the compound≥3*EC50 of the reference compound) | Compound GI50 (nM)/Reference compound GI50 (nM) (NUGC-3 cells): C (C: GI50 of the compound ≥ 3 * GI50 of the reference compound)

CNC(=O)c1ccc(NCc2nnc(-c3nc4c(NC5CCN(C)CC5)cccn4c3CC(F)(F)F)s2)c(OC)c1 [Compound 18]
EC50 (p53 Y220C [1]): 100 to 500 nM | Compound EC50 (nM)/Reference compound EC50 (nM) (p53 Y220C [2]): C (C: EC50 of the compound≥3*EC50 of the reference compound) | GI50 (NUGC-3 cells): 1 to 5 µM | Compound GI50 (nM)/Reference compound GI50 (nM) (NUGC-3 cells): C (C: GI50 of the compound ≥ 3 * GI50 of the reference compound)

CN1CCC(Nc2cccn3c(CC(F)(F)F)c(-c4nnc(CNC(=O)c5ccn(C(C)(C)C)c5)s4)nc23)CC1 [Compound 19]
EC50 (p53 Y220C [1]): 100 to 500 nM | Compound EC50 (nM)/Reference compound EC50 (nM) (p53 Y220C [2]): B (B: EC50 of the reference compound<EC50 of the compound≤3.0*EC50 of the reference compound) | GI50 (NUGC-3 cells): ≥ 5 µM | Compound GI50 (nM)/Reference compound GI50 (nM) (NUGC-3 cells): C (C: GI50 of the compound ≥ 3 * GI50 of the reference compound)

CNC(=O)c1ccc(NCC#Cc2nc3c(NC4CCN(C(C)C)CC4F)cccn3c2CC(F)(F)F)c(OC)c1 (stereo not drawn) [Compound 20]
EC50 (p53 Y220C [1]): 500 to 1000 nM | Compound EC50 (nM)/Reference compound EC50 (nM) (p53 Y220C [2]): C (C: EC50 of the compound≥3*EC50 of the reference compound) | GI50 (NUGC-3 cells): 1 to 5 µM | Compound GI50 (nM)/Reference compound GI50 (nM) (NUGC-3 cells): C (C: GI50 of the compound ≥ 3 * GI50 of the reference compound)

CNC(=O)c1ccc(NCC#Cc2nc3c(N[C@@H]4CCN(CCOC)C[C@@H]4F)cccn3c2CC(F)(F)F)c(OC)c1 [Compound 21]
EC50 (p53 Y220C [1]): 100 to 500 nM | Compound EC50 (nM)/Reference compound EC50 (nM) (p53 Y220C [2]): C (C: EC50 of the compound≥3*EC50 of the reference compound) | GI50 (NUGC-3 cells): 1 to 5 µM | Compound GI50 (nM)/Reference compound GI50 (nM) (NUGC-3 cells): C (C: GI50 of the compound ≥ 3 * GI50 of the reference compound)

CN1CCC(Nc2cccn3c(CC(F)(F)F)c(-c4nnc(CNC(=O)c5cnn(C6CCOC6)c5)s4)nc23)CC1 (stereo not drawn) [Compound 22]
EC50 (p53 Y220C [1]): 100 to 500 nM | Compound EC50 (nM)/Reference compound EC50 (nM) (p53 Y220C [2]): B (B: EC50 of the reference compound<EC50 of the compound≤3.0*EC50 of the reference compound) | GI50 (NUGC-3 cells): ≥ 5 µM | Compound GI50 (nM)/Reference compound GI50 (nM) (NUGC-3 cells): C (C: GI50 of the compound ≥ 3 * GI50 of the reference compound)

CN1CCC(Nc2cccn3c(CC(F)(F)F)c(-c4nnc(CNC(=O)c5cnn(Cc6ccccc6)c5)s4)nc23)CC1 [Compound 23]
EC50 (p53 Y220C [1]): 100 to 500 nM | Compound EC50 (nM)/Reference compound EC50 (nM) (p53 Y220C [2]): B (B: EC50 of the reference compound<EC50 of the compound≤3.0*EC50 of the reference compound) | GI50 (NUGC-3 cells): 1 to 5 µM | Compound GI50 (nM)/Reference compound GI50 (nM) (NUGC-3 cells): C (C: GI50 of the compound ≥ 3 * GI50 of the reference compound)

CN1CCC(Nc2cccn3c(CC(F)(F)F)c(-c4ncc(CNC(=O)c5ccn(C(C)(C)C)c5)s4)nc23)CC1 [Compound 24]
EC50 (p53 Y220C [1]): 100 to 500 nM | Compound EC50 (nM)/Reference compound EC50 (nM) (p53 Y220C [2]): C (C: EC50 of the compound≥3*EC50 of the reference compound) | GI50 (NUGC-3 cells): 1 to 5 µM | Compound GI50 (nM)/Reference compound GI50 (nM) (NUGC-3 cells): C (C: GI50 of the compound ≥ 3 * GI50 of the reference compound)

CNC(=O)c1ccc(NCC#Cc2nc3c(NC4CCC(C)(O)CC4)cccn3c2CC(F)(F)F)c(OC)c1 (stereo not drawn) [Compound 25]
EC50 (p53 Y220C [1]): 100 to 500 nM | Compound EC50 (nM)/Reference compound EC50 (nM) (p53 Y220C [2]): C (C: EC50 of the compound≥3*EC50 of the reference compound) | GI50 (NUGC-3 cells): ≥ 5 µM | Compound GI50 (nM)/Reference compound GI50 (nM) (NUGC-3 cells): C (C: GI50 of the compound ≥ 3 * GI50 of the reference compound)

CNC(=O)c1cc(OC)c(NCC#Cc2nc3c(N[C@H]4CC[C@H](N5CC6(COC6)C5)CC4)cccn3c2CC(F)(F)F)cc1F [Compound 27]
EC50 (p53 Y220C [1]): < 100 nM | Compound EC50 (nM)/Reference compound EC50 (nM) (p53 Y220C [2]): B (B: EC50 of the reference compound<EC50 of the compound≤3.0*EC50 of the reference compound) | Compound GI50 (nM)/Reference compound GI50 (nM) (NUGC-3 cells): C (C: GI50 of the compound ≥ 3 * GI50 of the reference compound)

Cc1cc[nH]c1C(=O)NCC#Cc1nc2c(NC3CCN(C)CC3)cccn2c1CC(F)(F)F [Compound 28]
EC50 (p53 Y220C [1]): 500 to 1000 nM | Compound EC50 (nM)/Reference compound EC50 (nM) (p53 Y220C [2]): C (C: EC50 of the compound≥3*EC50 of the reference compound) | Compound GI50 (nM)/Reference compound GI50 (nM) (NUGC-3 cells): C (C: GI50 of the compound ≥ 3 * GI50 of the reference compound)

COc1cc(C(=O)NC2CCOCC2)ccc1NCC#Cc1nc2c(NC3CCN(C)CC3)cccn2c1CC(F)(F)F [Compound 29]
EC50 (p53 Y220C [1]): 100 to 500 nM | Compound EC50 (nM)/Reference compound EC50 (nM) (p53 Y220C [2]): C (C: EC50 of the compound≥3*EC50 of the reference compound) | GI50 (NUGC-3 cells): 1 to 5 µM | Compound GI50 (nM)/Reference compound GI50 (nM) (NUGC-3 cells): C (C: GI50 of the compound ≥ 3 * GI50 of the reference compound)

COCCNC(=O)c1ccc(NCC#Cc2nc3c(NC4CCN(C)CC4)cccn3c2CC(F)(F)F)c(OC)c1 [Compound 30]
EC50 (p53 Y220C [1]): 100 to 500 nM | Compound EC50 (nM)/Reference compound EC50 (nM) (p53 Y220C [2]): C (C: EC50 of the compound≥3*EC50 of the reference compound) | GI50 (NUGC-3 cells): 1 to 5 µM | Compound GI50 (nM)/Reference compound GI50 (nM) (NUGC-3 cells): C (C: GI50 of the compound ≥ 3 * GI50 of the reference compound)

CNC(=O)c1ccc(NCC#Cc2nc3c(NC4CCC(N(C)[C@@H]5CCOC5)CC4)cccn3c2CC(F)(F)F)c(OC)c1 (stereo partly drawn) [Compound 33]
EC50 (p53 Y220C [1]): 100 to 500 nM | Compound EC50 (nM)/Reference compound EC50 (nM) (p53 Y220C [2]): C (C: EC50 of the compound≥3*EC50 of the reference compound) | Compound GI50 (nM)/Reference compound GI50 (nM) (NUGC-3 cells): C (C: GI50 of the compound ≥ 3 * GI50 of the reference compound)

CNC(=O)c1ccc(NCC#Cc2nc3c(NC4CCC(N5CC6CCC(C5)O6)CC4)cccn3c2CC(F)(F)F)c(OC)c1 (stereo not drawn) [Compound 34]
EC50 (p53 Y220C [1]): 100 to 500 nM | Compound EC50 (nM)/Reference compound EC50 (nM) (p53 Y220C [2]): C (C: EC50 of the compound≥3*EC50 of the reference compound) | Compound GI50 (nM)/Reference compound GI50 (nM) (NUGC-3 cells): C (C: GI50 of the compound ≥ 3 * GI50 of the reference compound)

CNC(=O)c1ccc(NCC#Cc2nc3c(NC4CC[C@@H](N5CCC5)C[C@@H]4F)cccn3c2CC(F)(F)F)c(OC)c1 (stereo partly drawn) [Compound 40]
EC50 (p53 Y220C [1]): < 100 nM | Compound EC50 (nM)/Reference compound EC50 (nM) (p53 Y220C [2]): B (B: EC50 of the reference compound<EC50 of the compound≤3.0*EC50 of the reference compound) | GI50 (NUGC-3 cells): < 1 µM | Compound GI50 (nM)/Reference compound GI50 (nM) (NUGC-3 cells): B (B: GI50 of the reference compound < GI50 of the compound ≤ 3.0 * GI50 of the reference compound)
